Assays:
[1] = tested on: left atrium of rats; assay: Inotropism of isolated rat atrium (cardiac contraction force)
Source text: The left atrium of rats was used to assess the inotropic activity. The data were expressed as contraction force (g of tension), and were compared to the results obtained with bupivacaine.
The application of square pulses (5 V, 5 ms, 2 Hz) in the left atrium with frequency of 120 bpm was sufficient to produce a cardiac contraction force of 0.63±0.09 g of tension.

[2] = tested on: right atrium of rats; assay: Chronotropism of isolated rat atrium (frequency of spontaneous contractions)
Source text: The right rat atrium was used to assess the chronotropic activity. The values of the spontaneous mechanical activity of the right atrium were expressed in contractions frequency or beats per minute (bpm). The heart rate was 298±50 contractions per minute in the rat right atrium.

[3] = tested on: male Swiss mice; assay: Tail flick assay; conditions: naloxone 5 mg/kg i.p.; morphine 10 mg/kg; telocinobufagin 5 mg/kg oral
[4] = tested on: male Swiss mice; assay: Hot plate assay; conditions: naloxone 5 mg/kg i.p.; morphine dose printed as 'mg/kg'; telocinobufagin 5 mg/kg oral
[5] = tested on: male Swiss mice; assay: Contortion assay (0.6% acetic acid, abdominal contortions) in mice; conditions: naloxone 5 mg/kg i.p.; morphine 10 mg/kg i.p.; telocinobufagin 10 mg/kg oral
[6] = tested on: rats with sciatic nerve ligature; assay: Chronic constrictive injury (CCI) model, allodynia (von Frey)
[7] = tested on: male Swiss mice; assay: Formalin assay (intraplantar 4% formalin, phases 1 and 2) in mice; conditions: naloxone 5 mg/kg i.p., morphine 10 mg/kg, telocinobufagin 5 mg/kg oral
[8] = tested on: rats with sciatic nerve ligature; assay: Chronic constrictive injury (CCI) model, hyperalgesia (Randall & Selitto paw pressure); conditions: naloxone 5 mg/kg i.p.; morphine 10 mg/kg; telocinobufagin 5 mg/kg i.p.

Compound | cardiac contraction force ([1]; 3×10^−5 M, basal 0.63±0.09, mean±SEM, n=6) | cardiac contraction force ([1]; 10^−4 M, p<0.05) | frequency of spontaneous cardiac activity ([2]; 3×10^−5 M, basal 298±50, mean±standard error, n=6) [bpm] | heart rate (frequency of spontaneous cardiac activity) ([2]; 10^−4 M, p<0.05) | effect of naloxone on the analgesic action [3] | effect of naloxone on the analgesic action [4] | effect of naloxone on the analgesic action [5] | reversion of the allodynia (compared to RP) ([6]; intraperitoneal morphine 10 mg/kg) [%] | effect of naloxone on the analgesic action, allodynia ([6]; naloxone 5 mg/kg i.p., morphine 10 mg/kg, telocinobufagin 5 mg/kg i.p.) | effect of naloxone on the analgesic action, phase 1 ([7]; phase 1) | effect of naloxone on the analgesic action, phase 2 ([7]; phase 2) | effect of naloxone on the analgesic action, hyperalgesia [8]
CCCCN1CCCCC1C(=O)Nc1c(C)cccc1C (stereo not drawn) [bupivacaine, reference compound] | 0.13±0.06 g of tension | blocked completely the cardiac contraction force to zero | 9.6±2.4 | blocked completely the heart rate to zero | – | – | – | – | – | – | – | –
CN1CC[C@]23c4c5ccc(O)c4O[C@H]2[C@@H](O)C=C[C@H]3[C@H]1C5.O=S(=O)(O)O [morphine, morphine sulfate, reference compound] | – | – | – | – | blocked | blocked | blocked | ~50 | blocked | blocked | blocked | blocked

Reference: patent US8541395B2 (priority 2009, dated 2013)
